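The compound was tested at five concentrations on cells cultured in 96-well plates, with a 48-hour exposure period. GI50: concentration for 50% inhibition of growth.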 Active and inactive are the calls of the source. Rule as the data show it: active = GI50 up to about 1.1 µM and inactive = higher. *1 amine or outer side, *2 acyl side, *3 side chain or, on linkers, in order; H or OH if unused. Where a SMILES comes first, the peptide text is derived from it. Bridges are numbered along the chain shown (N, C = ends). [ ]: non-standard residue; d: D form. The star is where a group is joined. X56 = CC(C)C(C)C(C(=O)[*:2])N(C)[*:1]; Picolinoyl(3-OH) = O=C(c1ncccc1O)*; NMePhg = CN[CH](C(=O)O)c1ccccc1; Hyp = O=C(O)[CH]1C[CH](O)CN1; Sar = CNCC(=O)O
How the values were obtained:
Assay in all cases: DTP human tumour cell line panel, 48 h
EKVX = tested on: EKVX
HCC 2998 = tested on: HCC 2998
HOP-62 = tested on: HOP-62
IGROV-1 = tested on: IGROV-1
NCI-H460 = tested on: NCI-H460
NCI/ADR-RES = tested on: NCI/ADR-RES
OVCAR-3 = tested on: OVCAR-3
OVCAR-4 = tested on: OVCAR-4
OVCAR-5 = tested on: OVCAR-5
RPMI-8226 = tested on: RPMI-8226
SF-268 = tested on: SF-268
SF-539 = tested on: SF-539
SNB-19 = tested on: SNB-19
SNB-75 = tested on: SNB-75
UO-31 = tested on: UO-31
786-0 = tested on: 786-0
M14 = tested on: M14

Measured: GI50

CC(C)CC1NC(=O)C(NC(=O)c2ncccc2O)C(C)OC(=O)C(c2ccccc2)N(C)C(=O)C(C)NC(=O)C(C(C)C(C)C)N(C)C(=O)CN(C)C(=O)C2CC(O)CN2C1=O (stereo not drawn) ({Picolinoyl(3-OH)}-TL[Hyp][Sar][X56]A[NMePhg]; ester 1-C; configuration not given here)
inactive: EKVX 10.1 µM | HCC 2998 78.7 µM | HOP-62 > 125 µM | IGROV-1 23.8 µM | NCI-H460 12.3 µM | NCI/ADR-RES > 125 µM | OVCAR-3 104 µM | OVCAR-4 66.5 µM | OVCAR-5 > 125 µM | RPMI-8226 35.8 µM | SF-268 51.3 µM | SF-539 74.5 µM | SNB-19 115 µM | SNB-75 36.7 µM | UO-31 > 85.5 µM

C=CCCC(=O)CC(=O)OCc1ccccc1
inactive: 786-0 > 100 µM | EKVX > 100 µM | HCC 2998 > 100 µM | HOP-62 > 100 µM | IGROV-1 > 100 µM | M14 > 100 µM | NCI-H460 > 100 µM | OVCAR-3 > 100 µM | OVCAR-4 > 100 µM | OVCAR-5 > 100 µM | RPMI-8226 > 100 µM | SF-268 > 100 µM | SF-539 > 100 µM | SNB-19 > 100 µM | SNB-75 99.3 µM | UO-31 > 100 µM

CC1=CCC2(C#N)CCC1C2O (stereo not drawn)
inactive: 786-0 64.1 µM | EKVX > 100 µM | HCC 2998 > 100 µM | HOP-62 > 100 µM | IGROV-1 > 100 µM | M14 > 100 µM | NCI-H460 > 100 µM | OVCAR-3 > 100 µM | OVCAR-4 > 100 µM | OVCAR-5 > 100 µM | RPMI-8226 > 100 µM | SF-268 > 100 µM | SF-539 > 100 µM | SNB-19 > 100 µM | SNB-75 > 100 µM | UO-31 > 100 µM

CC1=C[C@]2(O)C(=O)[C@H](C)C[C@H]3[C@@H](CC[C@@](C)(O)/C=C\2C1=O)C3(C)C
inactive: 786-0 18.9 µM | EKVX 70.5 µM | HCC 2998 30.3 µM | HOP-62 > 49.8 µM | IGROV-1 23.4 µM | M14 17.3 µM | NCI-H460 25.5 µM | OVCAR-3 19.7 µM | OVCAR-4 23.6 µM | OVCAR-5 > 76.7 µM | RPMI-8226 > 41.9 µM | SF-268 20.7 µM | SF-539 22.4 µM | SNB-19 60.7 µM | SNB-75 33.3 µM | UO-31 62.5 µM
